Data set [1] relates to MOLT-4. Description: CellTiterGlo cell viability assay, MOLT-4. In kind it is cell-based. In outline: (§1)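 Cell viability was measured by CellTiterGlo luminescence after ~72 h compound exposure under standard growth conditions. Compounds were tested in duplicate at 9 points, 3.16-fold dilutions, final concentrations 198 μM to 19.8 nM, 0.5% DMSO final; absolute EC50 and percentage inhibition at top concentration were reported.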
For orientation: In ATP-based viability assays light output follows the ATP content of the culture.

Data set [2] can be described thus: in vitro. The conditions noted are these: human, hepatocytes, pH 7.3.
Data set [3] concerns CCRF-CEM. Nature of the data set: CellTiterGlo cell viability assay, CCRF-CEM. In kind it is cell-based. To be noted: 72 h; for EC50: read-out: Ab EC50; for inhibition at 198 µM: percentage inhibition at the highest concentration tested, read-out: Top Inh. Summed up: as §1
Data set [4] concerns OVCAR 3. Description: CellTiterGlo cell viability assay, OVCAR 3. It is filed as cell-based. To be noted: Homo sapiens; for EC50: read-out: Ab EC50; for inhibition at 198 µM: percentage inhibition at the highest concentration tested, read-out: Top Inhibit. In outline:
as §1

Data set [5] relates to RL. Nature of the data set: CellTiterGlo cell viability assay, RL. In kind it is cell-based. To be noted: Homo sapiens, 72 h. In outline:
as §1

The test system of data set [6] is HT29. Nature of the data set: CellTiterGlo cell viability assay, HT29. In kind it is cell-based. To be noted: Homo sapiens, HT29, 72 h; for EC50: read-out: Ab EC50; for inhibition at 198 µM: percentage inhibition at the highest concentration tested, read-out: Top Inhibit. In outline: as §1
Data set [7] has as its system KG-1. Nature of the data set: CellTiterGlo cell viability assay, KG-1. To be noted: Homo sapiens, KG-1, 72 h. In kind it is cell-based. Summed up:
as §1

In data set [8] the test system is MCF-7. Nature of the data set: CellTiterGlo cell viability assay, MCF-7. The conditions noted are these: MCF-7, 72 h; for inhibition at 198 µM: percentage inhibition at the highest concentration tested, read-out: Top Inhibit; for EC50: read-out: Ab EC50. It is filed as cell-based. Summed up:
as §1

For data set [9], the system named is HepG2. Nature of the data set: CellTiterGlo cell viability assay, HepG2. In kind it is cell-based. Summed up: as §1
Data set [10] deals with HL-60. Description: CellTiterGlo cell viability assay, HL-60. In kind it is cell-based. The conditions noted are these: Homo sapiens, HL-60, 72 h; for inhibition at 198 µM: read-out: Top Inh. Summed up: as §1
Data set [11] relates to K562. Description: CellTiterGlo cell viability assay, K562. In kind it is cell-based. Summed up: as §1
Data set [12] relates to RPMI-8226. Description: CellTiterGlo cell viability assay, RPMI-8226. It is filed as cell-based, Human. In outline:
as §1

In data set [13] the test system is Mia-Pa-Ca-2. Nature of the data set: CellTiterGlo cell viability assay, Mia-Pa-Ca-2. In kind it is cell-based. The conditions noted are these: Homo sapiens, MIA PaCa-2, Mia-Pa-Ca-2, 72 h; for EC50: absolute EC50, read-out: Ab EC50; for inhibition at 198 µM: percentage inhibition at the highest concentration tested, read-out: Top Inhibit. As to the method: A subset of compounds of the invention were assayed for their cytotoxic activity in an array of different solid tumours and haematological malignancies using the following assay.
In vitro viability assay were performed to assess the effects of compounds on cell viability in selected cell lines over 72 h using the CellTiterGlo (CTG, Promega-G7573) assay. The tests were performed in duplicates with treatment of compounds at 9 points, 3.16 folds titration in 96 well plates over ˜72 h. The compound starting concentrations were 198 μM. Cell viability assay using CellTiterGlo in 96-well plate were performed. Compound treatment 72 h, standard growth conditions, duplicates. Compounds were dissolved to 40 mM with thawed […]. Compounds were serially diluted at 3.16 fold in thawed DMSO, and warmed to 37° C. before being dissolved in media (2 μL+200 μL). After compounds were dissolved in media, media containing compounds were warmed to 37° C. in incubator and then compounds in media were added to cell plates (50 μL+50 μL) in duplicates. The compounds' final concentrations were from 198 μM to 19.8 nM. All compound solubilities were checked and recorded again, then the plates were transferred to CO2 tissue culture incubator immediately and incubated for 3 days. DMSO final concentration is 0.5%. The parent nucleoside in each case was tested as a comparator, as was an exemplary ProTide. The drugs of the ProTide class that were tested were as follows:
The following cell lines were tested and are referred to in the Table 1 below:
In Tables 2, 3 and 4, ‘Ab EC50’ refers to the absolute EC50 and ‘Top inhibit’ refers to the percentage inhibition achieved at the highest concentration tested.

The mark [14] stands for this setting: Homo sapiens, MOLT-4, 72 h, percentage inhibition at the highest concentration tested, read-out: Top Inh.
[15] abbreviates: Homo sapiens; HepG2, 72 h, percentage inhibition at the highest concentration tested; read-out: Top Inhibit.
[16] abbreviates: Homo sapiens; MOLT-4, 72 h, absolute EC50, numeric values; read-out: Ab EC50.
Setting [17] is: Homo sapiens; MOLT-4, 72 h, percentage inhibition at the highest concentration tested; read-out: Top Inh.
The mark [18] stands for this setting: absolute EC50, numeric values, read-out: Ab EC50.
The mark [19] stands for this setting: percentage inhibition at the highest concentration tested, read-out: Top Inh.
Setting [20] is: HT-29, absolute EC50, numeric values.
[21] abbreviates: percentage inhibition at the highest concentration tested.
Setting [22] is: Table 3 classes, read-out: Ab EC50.

Structures are written as SMILES. Where a name gives a salt, the structure may show the parent alone. Read-outs that look alike come from different tables or passages of the source.

As to `C[C@H](NP(=O)(OC[C@H]1O[C@@H](n2cnc3c(N)nc(Cl)nc32)[C@H](F)C1O)Oc1ccccc1)C(=O)OCc1ccccc1` (some centres unmarked) [A, reference compound], the EC50 was 200 to 2000 nM in [1] (Homo sapiens, MOLT-4, 72 h, Table 3 classes, read-out: Ab EC50); 200 to 1000 nM in data set [1] (Homo sapiens, MOLT-4, 72 h, Table 4 classes, read-out: Ab EC50); less than 200 nM in [3] (Table 4 classes); less than 200 nM in data set [3] (Homo sapiens, Table 3 classes); greater than 10000 nM in [4] (OVCAR 3, 72 h, Table 4 classes); 2000 to 5000 nM in data set [5] (read-out: Ab EC50, RL, 72 h, Table 3 classes). The EC50 in data set [5] (read-out: Ab EC50, RL, 72 h, Table 4 classes) lay in the range of 1000 to 5000 nM; in data set [6] (HT-29, 72 h, Table 3 classes) it was 2000 to 5000 nM; in [6] (HT-29, 72 h, Table 4 classes), 1000 to 5000 nM; in data set [7] (read-out: Ab EC50), 200 to 1000 nM; in data set [8] (Homo sapiens, MCF7, Table 3 classes) it was 5000 to 10000 nM; in data set [8] (Table 4 classes) it was 5000 to 10000 nM. The half-maximal effective concentration (EC50) was 5000 to 10000 nM in data set [9] (Homo sapiens; HepG2, 72 h, Table 4 classes; read-out: Ab EC50); 200 to 2000 nM in data set [10] (read-out: Ab EC50, HL-60, 72 h, Table 3 classes); 200 to 1000 nM in data set [10] (read-out: Ab EC50, HL-60, 72 h, Table 4 classes); greater than 10000 nM in [11] (Homo sapiens, K562, 72 h, read-out: Ab EC50); greater than 10000 nM in data set [11] (read-out: Ab EC50; K 562, 72 h, Table 4 classes); 2000 to 5000 nM in data set [12] (Homo sapiens, RPMI-8226, 72 h, read-out: Ab EC50, RPMI-8226, 72 h, Table 3 classes). The concentration giving a half-maximal response (EC50) in [12] (Homo sapiens, RPMI-8226, 72 h, read-out: Ab EC50, RPMI-8226, 72 h, Table 4 classes) lay within 1000 to 5000 nM. Moreover, the inhibition at 198 µM in data set [1] (setting [14]) stood at 93%; in [3] (Homo sapiens) it was 99.4%; in [4] (OVCAR 3, 72 h), 94%; in [5] (read-out: Top Inh, RL, 72 h, percentage inhibition at the highest concentration tested), 99.8%; in data set [6] (HT-29, 72 h), 94%; in data set [7] (read-out: Top Inhibit) it was 93%. In addition, the inhibition at 198 µM in data set [8] (Homo sapiens, MCF7, 72 h) worked out at 99.6%; in data set [9] (setting [15]), 99%; in data set [10], 97%; in data set [12] (Homo sapiens, RPMI-8226, 72 h, read-out: Top Inh, RPMI-8226, 72 h, percentage inhibition at the highest concentration tested), 97%. The molecule further registered a half-life at 1 μM in data set [2] of 24 min.

For the molecule `Nc1ncnc2c1ncn2[C@@H]1O[C@H](CO)C[C@H]1O` [Cordycepin, reference compound], the EC50 in data set [1] (setting [16]) is 101000 nM; in [13], 84700 nM; in data set [5] (setting [18]) it was greater than 198000 nM; in data set [6] (setting [20]), 32700 nM; in data set [10] (setting [18]), 118000 nM; in [11] (Homo sapiens; K562, 72 h, absolute EC50, numeric values; read-out: Ab EC50), 118000 nM. For the same molecule, the EC50 in data set [12] (Homo sapiens; RPMI-8226, 72 h, absolute EC50, numeric values; read-out: Ab EC50) is greater than 198000 nM. Further, the inhibition at 198 µM is 76.5% in data set [1] (setting [17]); 88% in data set [13]; 16.6% in data set [5] (setting [19]); 87% in [6] (HT-29); 56% in [10] (setting [21]); 94% in data set [11] (Homo sapiens; K562, 72 h, percentage inhibition at the highest concentration tested; read-out: Top Inh). For the same molecule, the inhibition at 198 µM in data set [12] (Homo sapiens; RPMI-8226, 72 h, percentage inhibition at the highest concentration tested; read-out: Top Inh) is 17%. The molecule further came in with a half-life in data set [2] of 48 min.

`Nc1nc(Cl)nc2c1ncn2[C@@H]1O[C@H](COP(=O)(O)OP(=O)(NCC(=O)OCc2ccccc2)Oc2ccccc2)C(O)[C@H]1F` (stereo partly drawn) [Example 3, 2-Chloro-9-(2′-Deoxy-2′-fluoro-β-D-arabinofuranosyl)adenine-5′-O-[phenyl(benzoxy-L-glycinyl)] Diphosphate Triethylammonium Salt]: the inhibition at 198 µM in data set [1] (setting [14]) is 96%; in [3] (Homo sapiens), 99.6%; in data set [4] (OVCAR-3, 72 h), 49%; in [5] (setting [19]) it was 63%; in data set [6] (HT-29, 72 h) it was 61%; in data set [8] (Homo sapiens, MCF7, 72 h) it was 59%. The inhibition at 198 µM in data set [9] (Homo sapiens, HepG2, 72 h, percentage inhibition at the highest concentration tested, read-out: Top Inhibit) was 53%; in [10] (setting [21]), 97%; in data set [11] (Homo sapiens, K562, 72 h, percentage inhibition at the highest concentration tested; read-out: Top Inh), 24%; in data set [12] (Homo sapiens, RPMI-8226, 72 h, percentage inhibition at the highest concentration tested, read-out: Top Inh) it was 91.6%. The half-maximal effective concentration (EC50) in data set [1] (Homo sapiens; MOLT-4, 72 h, Table 3 classes; read-out: Ab EC50) was less than 200 nM; in data set [3] (Homo sapiens, Table 3 classes), less than 200 nM; in data set [4] (OVCAR 3, 72 h, Table 3 classes), greater than 10000 nM; in [5] (setting [22]) it was 200 to 2000 nM; in data set [6] (HT-29, 72 h, Table 3 classes), 200 to 2000 nM; in data set [8] (Homo sapiens, MCF7, 72 h, Table 3 classes), 2000 to 5000 nM. The EC50 in data set [9] (Homo sapiens, HepG2, 72 h, Table 3 classes, read-out: Ab EC50) is 2000 to 5000 nM; in [10] (setting [22]) it was less than 200 nM; in data set [11] (Homo sapiens; K562, 72 h, Table 3 classes; read-out: Ab EC50), greater than 10000 nM; in data set [12] (Homo sapiens, RPMI-8226, 72 h, Table 3 classes, read-out: Ab EC50) it was 5000 to 10000 nM. Moreover, the half-life in data set [2] fell in the range of 20 to 100 min.

Take `Nc1ccn([C@@H]2O[C@H](CO)[C@@H](O)C2(F)F)c(=O)n1` [Gemcitabine, reference compound]: the EC50 in data set [1] (setting [16]) was 4 nM; in data set [3] (Homo sapiens, absolute EC50, numeric values), 20 nM; in data set [13] it was 30 nM; in data set [4] (OVCAR 3, 72 h, absolute EC50, numeric values) it was greater than 198000 nM; in data set [6] (setting [20]) it was 220 nM; in data set [8] (Homo sapiens, MCF7, absolute EC50, numeric values), 11 nM. The concentration for a half-maximal effect (EC50) in [9] (Homo sapiens; HepG2, 72 h, absolute EC50, numeric values; read-out: Ab EC50) was determined as 28000 nM. The inhibition at 198 µM in [1] (setting [17]) amounted to 88%; in data set [3] (Homo sapiens), 101%; in [13] it was 79%; in [4] (OVCAR 3, 72 h), 44%; in data set [6] (HT-29), 65%; in [8] (Homo sapiens, MCF7), 53%. The inhibition at 198 µM in data set [9] (setting [15]) stood at 54%.

In general, EC50 refers to the concentration giving half of the maximal effect. By half-life is commonly meant the time in which the quantity being followed falls by half. A lower half-life goes with rapid decline.

Source of the values: patent US11560400B2, “Salts of diphosphate phosphoramidate of nucleosides as anticancer compounds” (NuCana plc, priority 2017, dated 2023).
